Experimental data from patent US12313632B2, “Tepoxalin targeting of ABCB1 overexpressing cancers” (THE BROAD INSTITUTE, INC., priority 2018, dated 2025).
pIC50: −log10 of the molar value. Read-outs that look alike come from different tables or passages of the source.

Key:
[1] = test system: barcode-tagged neoplastic cell line populations sorted by ABCB1 expression; assay: PRISM multiplexed cellular viability screen, cell killing plotted against ABCB1 expression; settings: for Phenocopy of tepoxalin activity in PRISM: tested at the same dose
Method: PRISM cell line barcoding, pooling, and screening was performed as previously described with several improvements to the original method (5). First, the lentiviral vector was modified to encode the unique barcode identifier at the end of the puromycin resistance gene. This enables barcodes to be detected using a variant of the mRNA capture and Luminex detection method developed for the L1000 gene expression assay (6). Second, a set of ten inert barcodes were spiked-in to each well of each plate after cell lysis to control for variation in PCR amplification as detailed below.
Cell viability was calculated as the ratio of nMFI to the median of the nMFI from the DMSO-treated negative controls for each cell line on each plate. Batch effects produced from variable detection and assay conditions were then removed using ComBat (8). The final viability values were calculated as the median of the batch-corrected cell viabilities from biological replicates for each cell line, compound and dose.
Measures of dose response were obtained by fitting 3-parameter logistic curves to viability values for each compound and cell line using the R package ‘drc’. Following the practice of Smirnov and Safikhani (9), viability was truncated at 1.0 and fit as a function of drug concentration according to:
High-throughput “next gen” sequencing performed upon arrayed cell populations allowed for well-by-well tracking of cell viability over time, in the presence and absence of library compounds, via barcode enumeration and deconvolution of treated and control cell line populations. Using this approach, cell viability dose-response curves were generated for each compound of the drug repurposing library, across all targeted cell lines present in the barcode-tagged neoplastic cell line “PRISM” populations.
By sorting the “PRISM” population cell lines by their respective relative levels of ABCB1 expression (as assessed by RNAseq), the cell killing profile of each drug repurposing library compound tested could be plotted against relative levels of ABCB1 expression, thereby obtaining a cell killing profile that served as a proxy for dose-response of the library compound across progressively increasing levels of ABCB1 expression.

LS1034 cells [2] = assay: CellTiter-Glo cellular viability assay, killing of LS1034 cells; assay type: cell-based, human; settings: for pIC50: Homo sapiens, LS-1034
Method: (§1) Cell viability was assayed using a modified manufacturer's protocol for CellTiter-Glo® (Promega #G7573). Cells were seeded at a density of 2000 cells per well in a 96 well black, clear bottom plate (Corning #89091-012) in 100 uL total media per well. The following day different concentrations of compounds at various doses were printed in triplicate in a random well format using the Tecan D300e Digital Dispenser. After 120H, 60 μL of a 1:3 solution of CellTiterGlo reagent in 1×PBS (Corning #01018002) was added per well and allowed to incubate at RT for 10 mins. Luminescence was measured with an integration time of 0.1 s using Envision Microplates Reader (PERKIN ELMER #2105-0010). Biological replicates were averaged and normalized to vehicle control. Dose curves were generated using Graphpad Prism.

[3] = published pharmacokinetic studies; cited from earlier work
cyclooygenase = settings: in vitro; cited from earlier work
LS1034 cells [4] = assay: Compound cell permeability assay (LC-MS); settings: 3 hour incubation, 20 μM, with or without ABCB1 knockout or elacridar
Method: (§2) Compound was incubated in naïve cell media (no cell control, or NCC) or in the presence of cells at 1 million cells/mL. The incubation was carried out in a 37° C. with 5% CO2 cell incubator with gentle plate shaking for 3 hours. Following the incubation, the NCC samples were placed on the bench until final analysis. Cell samples were centrifuged at 500×g for 5 minutes. The supernatant was removed, and the cells were washed twice with cold PBS. Cells were again centrifuged at 500×g for 5 minutes, the supernatant was removed/discarded, and cells were resuspended in 130 pL water (Honeywell, catalog #33015-1L). The entire volume was then transferred into a Covaris microTUBE plate (Covaris, catalog #220078) and sonicated on a Covaris LE220 focused-ultrasonicator. Samples were transferred to a 96wp and centrifuged at 3000×g for 15 min at 20° C. The supernatant was transferred to a new 96wp. For both the NCC and cell samples, 5 pL was transferred to a 96wp. To each sample was added 45 pL cell media, 50 pL water, and 50 pL acetonitrile containing internal standard. […]
(§3) Samples were analyzed on a UPLC-MS/MS system consisting of a Waters Acquity I-Class FTN and AB Sciex 4500 Triple Quad mass spectrometer with compounds being detected by positive mode MRM detection. […] Sample concentrations were determined using a standard curve and dilution quality control samples prepared in a surrogate matrix. […]

MDR1 [5] = target: T1, MDR1 (Homo sapiens, UniProt P08183); assay: P-Glycoprotein transporter cell based antagonism assay (calcein AM assay); settings: read-out: IC50 in calcein AM assay; relies upon cell-permeability of compounds
REC1 cells = assay: Expanded cell line viability comparison, killing of REC1 cells; assay type: cell-based, human; settings: REC1 versus LS1034
Method: as §1

Kuramochi-ABCB1 cells = assay: Killing of native Kuramochi cells versus Kuramochi cells overexpressing ABCB1 (Kuramochi-ABCB1); assay type: cell-based, human; settings: for Change of compound-mediated killing with overexpressed ABCB1: Kuramochi-ABCB1 versus native Kuramochi cells
Method: Cell viability was assayed using a modified manufacturer's protocol for CellTiter-Glo® (Promega #G7573). […] The following day different concentrations of compounds at various doses were printed in triplicate in a random well format using the Tecan D300e Digital Dispenser. […] Biological replicates were averaged and normalized to vehicle control. Dose curves were generated using Graphpad Prism.
Next, the consequence of ectopic ABCB1 overexpression in cells resistant to tepoxalin was evaluated.

[6] = test system: LS1034 cells administered sg ABCB1-2; assay: Viability of LS1034 cells given control sgRNA (sg GFP) or ABCB1 knockdown sgRNA (sg ABCB1-2); assay type: cell-based, human; settings: sg ABCB1-2 compared to control sgRNA sg GFP
Method: A mixture of 3E6 cells, virus, and media with 4 μg/mL polybrene (Millipore) at a total volume of 2 mL was plated per well of a 12 well plate. Cells were centrifuged at 2000 RPM for 2 hours at 30° C. After removal from incubator, 2 mL of fresh media was added to each well and cells were allowed to incubate at 37° C. overnight. The following day cells were selected for with puromycin for 3-10 days, or until the non-infected control cell were completely non-viable.
as §1, with “Prism. […]” for “Prism.”

LS1034 cells [7] = test system: LS1034 cells
Method: as §2, §3

[8] = rat model, compared with naproxen; cited from earlier work
MDR1 [9] = target: T1, MDR1; assay: cell-based
MDR1 [10] = target: T1, MDR1; assay: cell-based; remark: listed apart in the source
[11] = PRISM population, ABCB1 expression by RNAseq
[12] = read-out: IC50 value (absolute) in killing LS1034 cells

T1 sequence (P08183 whole entry): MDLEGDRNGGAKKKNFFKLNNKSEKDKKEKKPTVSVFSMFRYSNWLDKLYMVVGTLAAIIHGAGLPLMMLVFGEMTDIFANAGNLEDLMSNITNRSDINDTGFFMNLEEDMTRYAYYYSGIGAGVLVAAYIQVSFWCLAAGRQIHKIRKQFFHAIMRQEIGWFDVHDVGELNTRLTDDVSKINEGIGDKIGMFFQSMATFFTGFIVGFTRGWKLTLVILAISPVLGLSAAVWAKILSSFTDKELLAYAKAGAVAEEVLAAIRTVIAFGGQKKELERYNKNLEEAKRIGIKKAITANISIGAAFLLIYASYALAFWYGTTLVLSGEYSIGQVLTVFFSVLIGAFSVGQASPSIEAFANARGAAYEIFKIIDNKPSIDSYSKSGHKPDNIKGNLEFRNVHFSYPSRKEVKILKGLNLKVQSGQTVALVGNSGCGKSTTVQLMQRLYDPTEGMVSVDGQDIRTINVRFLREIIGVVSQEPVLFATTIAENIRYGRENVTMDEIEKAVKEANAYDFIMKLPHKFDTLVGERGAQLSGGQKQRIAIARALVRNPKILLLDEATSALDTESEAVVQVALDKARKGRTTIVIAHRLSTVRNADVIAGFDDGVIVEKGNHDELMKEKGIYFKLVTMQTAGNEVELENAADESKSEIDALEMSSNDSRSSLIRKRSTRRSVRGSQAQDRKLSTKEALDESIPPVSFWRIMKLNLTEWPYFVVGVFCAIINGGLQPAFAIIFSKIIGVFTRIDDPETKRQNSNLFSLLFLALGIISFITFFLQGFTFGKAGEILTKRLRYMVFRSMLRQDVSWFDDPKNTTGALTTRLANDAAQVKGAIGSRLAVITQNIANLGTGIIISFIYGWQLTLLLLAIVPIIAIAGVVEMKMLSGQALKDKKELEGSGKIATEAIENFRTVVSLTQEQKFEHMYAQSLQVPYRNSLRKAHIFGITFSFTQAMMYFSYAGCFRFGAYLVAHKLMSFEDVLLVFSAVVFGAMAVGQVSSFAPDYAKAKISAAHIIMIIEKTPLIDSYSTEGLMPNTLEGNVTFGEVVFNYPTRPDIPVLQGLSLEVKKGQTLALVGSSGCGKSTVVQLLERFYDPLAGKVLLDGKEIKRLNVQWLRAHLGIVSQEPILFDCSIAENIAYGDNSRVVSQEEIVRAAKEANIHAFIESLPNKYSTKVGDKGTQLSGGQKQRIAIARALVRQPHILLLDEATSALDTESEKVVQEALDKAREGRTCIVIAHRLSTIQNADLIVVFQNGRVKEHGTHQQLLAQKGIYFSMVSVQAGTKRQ

COc1cccc2c1C(=O)c1c(O)c3c(c(O)c1C2=O)C[C@@](O)(C(=O)CO)C[C@@H]3O[C@H]1C[C@H](N)[C@@H](O)[C@H](C)O1 [epirubicin, Epirubicin]
Cell killing profile against relative levels of ABCB1 expression [1, 11]: robust killing of cells that expressed low levels of ABCB1

COc1ccc(-n2nc(CCC(=O)O)cc2-c2ccc(Cl)cc2)cc1 [RWJ20142]
Viability of treated LS1034 cells (LS1034 cells [2]; LS1034 cells): no decrease in viability
Maximal plasma concentration relative to parent compound [3]: higher maximal plasma concentration than the parent compound
Activity against cyclooxygenase (cyclooygenase): active
Cell permeability (LS1034 cells [4]): cell impermeability
pIC50 (MDR1 [5]): < 4.00

CC(C)C[C@H](NC(=O)[C@H](CCc1ccccc1)NC(=O)CN1CCOCC1)C(=O)N[C@@H](Cc1ccccc1)C(=O)N[C@@H](CC(C)C)C(=O)[C@@]1(C)CO1 [carfilzomib, Carfilzomib]
Cell killing profile against relative levels of ABCB1 expression [1, 11]: robust killing of cells that expressed low levels of ABCB1

C/C(=C\c1csc(C)n1)[C@@H]1C[C@@H]2O[C@]2(C)CCC[C@H](C)[C@H](O)[C@@H](C)C(=O)C(C)(C)[C@@H](O)CC(=O)N1 [ixabepilone, Ixabepilone]
Cell killing profile against relative levels of ABCB1 expression [1]: robust killing of cells that expressed low levels of ABCB1

CC(=O)O[C@H]1C(=O)[C@@]2(C)[C@H]([C@H](OC(=O)c3ccccc3)[C@]3(O)C[C@H](OC(=O)[C@H](O)[C@@H](NC(=O)c4ccccc4)c4ccccc4)C(C)=C1C3(C)C)[C@]1(OC(C)=O)CO[C@@H]1C[C@@H]2O [paclitaxel, Paclitaxel]
pIC50 (LS1034 cells [2]; read-out: IC50 in killing LS1034 cells): 6.78
Killing of REC1 cells compared with LS1034 cells (IC50 comparison) (REC1 cells): more robust killing of REC1 cells than LS1034 cells
Change of compound-mediated killing with overexpressed ABCB1 (Kuramochi-ABCB1 cells; 144 hours): dampened

COc1cccc2c1C(=O)c1c(O)c3c(c(O)c1C2=O)C[C@@](O)(C(=O)CO)C[C@@H]3O[C@H]1C[C@H](N)[C@H](O)[C@H](C)O1 [doxorubicin, Doxorubicin]
Change of compound-mediated killing with overexpressed ABCB1 (Kuramochi-ABCB1 cells; 144 hours): dampened
Cell killing profile against relative levels of ABCB1 expression [1, 11]: robust killing of cells that expressed low levels of ABCB1

Vinorelbine
Cell killing profile against relative levels of ABCB1 expression [1, 11]: robust killing of cells that expressed low levels of ABCB1

CC(=O)O[C@@]12CO[C@@H]1C[C@H](O)[C@@]1(C)C(=O)[C@H](O)C3=C(C)[C@@H](OC(=O)[C@H](O)[C@@H](NC(=O)OC(C)(C)C)c4ccccc4)C[C@@](O)([C@@H](OC(=O)c4ccccc4)[C@H]21)C3(C)C [docetaxel, Docetaxel]
Cell killing profile against relative levels of ABCB1 expression [1, 11]: robust killing of cells that expressed low levels of ABCB1

COc1cc2c(cc1OC)CN(CCc1ccc(NC(=O)c3cc(OC)c(OC)cc3NC(=O)c3cnc4ccccc4c3)cc1)CC2 [tariquidar]
pIC50 (LS1034 cells [2]; [12]): < 5.00
Phenocopy of tepoxalin activity in PRISM [1]: did not phenocopy tepoxalin

COc1ccc(-n2nc(CCC(=O)N(C)O)cc2-c2ccc(Cl)cc2)cc1 [tepoxalin]
pIC50 (LS1034 cells [2]; [12]): 5.11
Effect of elacridar co-treatment on killing of LS1034 cells (LS1034 cells [2]; LS1034, 120H, co-treatment with the MDR1 inhibitor elacridar across dose ranges): rescued
Killing of REC1 cells compared with LS1034 cells (IC50 comparison) (REC1 cells): more robust killing of REC1 cells than LS1034 cells
Effect of sg ABCB1-2 on compound-mediated killing of LS1034 cells [6]: effectively blocked
Change of compound-mediated killing with overexpressed ABCB1 (Kuramochi-ABCB1 cells; 144 hours): enhanced
Dose-response cell killing curves in combination with 2 μM elacridar, across ABCB1 expression/overexpression (Kuramochi-ABCB1 cells; combination with 2 μM elacridar, Kuramochi versus Kuramochi-ABCB1, 144 hours): impervious (did not shift)
Cell permeability (LS1034 cells [7]): readily cell permeable
Gastric ulcers at an effective dose [8]: fewer gastric ulcers in a rat model than naproxen
pIC50 (MDR1 [9]): 4.92
pIC50 (MDR1 [10]): 4.49
Cell killing profile against relative levels of ABCB1 expression [1, 11]: progressively enhanced killing of cell lines in positive correlation with increasing levels of ABCB1

O[C@@H](COc1cccc2ncccc12)CN1CCN([C@@H]2c3ccccc3[C@@H]3[C@H](c4ccccc42)C3(F)F)CC1 [zosuquidar]
pIC50 (LS1034 cells [2]; [12]): < 5.00

COc1cc2c(cc1OC)CN(CCc1ccc(NC(=O)c3cccc4c(=O)c5cccc(OC)c5[nH]c34)cc1)CC2 [elacridar]
pIC50 (LS1034 cells [2]; [12]): 5.72
Killing of REC1 cells compared with LS1034 cells (IC50 comparison) (REC1 cells): comparable IC50 values for REC1 killing and LS1034 killing
Cell killing by the compound alone in native and ABCB1-overexpressing Kuramochi cells (Kuramochi-ABCB1 cells; 144 hours): only modest cell killing
Phenocopy of tepoxalin activity in PRISM [1]: did not phenocopy tepoxalin

C/C=C/C[C@@H](C)C(=O)[C@H]1C(=O)N[C@@H](C(C)C)C(=O)N(C)CC(=O)N(C)[C@@H](CC(C)C)C(=O)N[C@@H](C(C)C)C(=O)N(C)[C@@H](CC(C)C)C(=O)N[C@@H](C)C(=O)N[C@H](C)C(=O)N(C)[C@@H](CC(C)C)C(=O)N(C)[C@@H](CC(C)C)C(=O)N(C)[C@@H](C(C)C)C(=O)N1C [valspodar]
pIC50 (LS1034 cells [2]; [12]): < 5.00

Romidepsin
Cell killing profile against relative levels of ABCB1 expression [1]: robust killing of cells that expressed low levels of ABCB1

CC[C@]1(O)C[C@@H]2C[N@@](CCc3c([nH]c4ccccc34)[C@@](C(=O)OC)(c3cc4c(cc3OC)N(C=O)[C@H]3[C@@](O)(C(=O)OC)[C@H](OC(C)=O)[C@]5(CC)C=CCN6CC[C@]43[C@@H]65)C2)C1 [vincristine, Vincristine]
Cell killing profile against relative levels of ABCB1 expression [1, 11]: robust killing of cells that expressed low levels of ABCB1

CC(=O)[C@]1(O)Cc2c(O)c3c(c(O)c2[C@@H](O[C@H]2C[C@H](N)[C@H](O)[C@H](C)O2)C1)C(=O)c1ccccc1C3=O [idarubicin, Idarubicin]
Cell killing profile against relative levels of ABCB1 expression [1, 11]: robust killing of cells that expressed low levels of ABCB1

O=C(C(c1ccccc1)c1ccccc1)N1CCN(CC(O)COc2cccc3ncccc23)CC1 (stereo not drawn) [dofequidar]
pIC50 (LS1034 cells [2]; [12]): < 5.00

COc1cccc2c1C(=O)c1c(O)c3c(c(O)c1C2=O)C[C@@](O)(C(C)=O)C[C@@H]3O[C@H]1C[C@H](N)[C@H](O)[C@H](C)O1 [daunorubicin, Daunorubicin]
Cell killing profile against relative levels of ABCB1 expression [1]: robust killing of cells that expressed low levels of ABCB1
